Broadly, the pIC50 is the negative decadic logarithm of the IC50, by convention in mol/L. For orientation: IC50 means the concentration needed to halve the response being measured. For orientation: pEC50 means the EC50 on a negative log10 scale, so that one unit is a factor of ten. As a reminder, the pKi is the negative decadic logarithm of the Ki, by convention in mol/L. What is called inhibition is the percentage by which the read-out fell short of the control.

pEC50, pIC50, pKi: −log10 of the molar value.

In assay [1] the test system is GTPase KRas (Homo sapiens), P01116 [G12D]. The experiment in a line: Binding affinity to KRAS G12D mutant (unknown origin).
Assay [2] has as its target T1, GTPase KRas (Homo sapiens, UniProt P01116). Nature of the assay: Inhibition of full-length human KRas4B (amino acids 1 to 188)-SOS interaction assessed as inhibition of nucleotide exchange activity.
Assay [3] deals with T1, GTPase KRas. Nature of the assay: Inhibition of full-length human KRas4B (amino acids 1 to 188)-SOS interaction assessed as inhibition of SOS-mediated nucleotide release activity.
Assay [4] has as its system DLD-1. Nature of the assay: Cytotoxicity against human DLD1 cells harboring mutant KRAS. The format is functional, cell-based.
In assay [5] the test system is DLD-1. Nature of the assay: Selectivity ratio of IC50 for mutant KRAS allele-deficient human DLD1 cells to IC50 for human DLD1 cells harboring mutant KRAS. The format is functional.
The test system of assay [6] is DLD-1. Nature of the assay: Cytotoxicity against mutant KRAS allele-deficient human DLD1 cells. Type of assay: functional, cell-based.
Assay [7] has as its system Mus musculus. Nature of the assay: Inhibition of MEK1-mediated ERK phosphorylation in human LOX cells xenografted in nude mouse assessed as plasma concentration required for inhibition at 100 mg/kg, po administered as single dose measured after 1 to 12 hrs by Western blot analysis. The arrangement: dose 100 mg/kg, route oral. The format is functional, organism-based. On the technique in general: In xenograft studies the graft and the host belong to different species.

Assay [8] addresses T2, Dual specificity mitogen-activated protein kinase kinase 1 (Homo sapiens, UniProt Q02750). The experiment in a line: Inhibition of MEK1 (unknown origin).
The subject of assay [9] is Mus musculus. The experiment in a line: Inhibition of MEK1-mediated ERK phosphorylation in human HT-29 cells xenografted in nude mouse assessed as plasma concentration required for inhibition at 100 mg/kg, po administered as single dose measured after 1 to 12 hrs by Western blot analysis. Conditions: HT-29, Plasma. The arrangement: dose 100 mg/kg, route oral. Type of assay: functional, organism-based.

The nature of assay [10]: Inhibition of human Rce1p using quenched fluorogenic substrate by fluorescence assay.
The nature of assay [11]: Inhibition of yeast Rce1p using yeast a-factor mating pheromone substrate. Also on record: species or system Saccharomyces cerevisiae.
Assay [12] concerns the target RAF proto-oncogene serine/threonine-protein kinase (Homo sapiens, UniProt P04049). The experiment in a line: Inhibition of cRAF (unknown origin) by Caliper assay.
Assay [13] in a line: Inhibition of cRaf/MEK/ERK (unknown origin). The arrangement: species or system Homo sapiens.
Assay [14] can be described thus: Inhibition of MEK/ERK (unknown origin). The arrangement: species or system Homo sapiens.
The target in assay [15] is T2, Dual specificity mitogen-activated protein kinase kinase 1. The experiment in a line: Non-competitive inhibition of MEK1 (unknown origin) kinase activity using fluorescent peptide as substrate by fluorescence assay in presence of ATP.
In assay [16] the test system is DLD-1. The experiment in a line: Antiproliferative activity against human DLD1 cells expressing KRAS mutant at 25 nM. Type of assay: functional.
Assay [17] has as its system MEF. The experiment in a line: Cytotoxicity against MEF harboring KRAS G12D mutant by ATP-based cell viability assay. The format is functional. The note with it: Mus musculus.
Assay [18] has as its system MEF. Nature of the assay: Antitumor activity against MEF harboring KRAS G12D mutant allografted in p53-null mouse assessed as reduction in tumor volume relative to control. The format is functional. The arrangement: scale not given: the % may be the effect or the level left.
The test system of assay [19] is MEF. The experiment in a line: Antitumor activity against MEF harboring KRAS G12D mutant allografted in p53-null mouse assessed as reduction in tumor weight relative to control. Type of assay: functional. The arrangement: scale not given: the % may be the effect or the level left.
Assay [20] can be described thus: Cytotoxicity against human H460 cells by SRB assay. The format is functional, cell-based. Conditions: NCI-H460.
The nature of assay [21]: Antitumor activity against human H460 cells xenograft model assessed as increase in host survival at 100 mg/kg, ip relative to solvent control (reference value: 24 days). Type of assay: functional, NCI-H460. Conditions: route intraperitoneal.
Assay [22] is described as follows: Antitumor activity against human H460 cells xenograft model assessed as tumor growth inhibition at 100 mg/kg, ip relative to solvent control. The format is functional. The note with it: NCI-H460, ip, route intraperitoneal, read-out: TGI.
Assay [23] can be described thus: Cytotoxicity against human T29Kt1 cells by SRB assay. In general terms: In SRB staining, fixed cells bind dye roughly in proportion to their protein.
The nature of assay [24]: Cytotoxicity against human NCI-H2887 cells by SRB assay. Type of assay: functional, cell-based.
The subject of a further assay is NCI-H2122. Nature of the assay: Cytotoxicity against human NCI-H2122 cells by SRB assay. Type of assay: functional, cell-based.
The test system of the next assay is A549. Nature of the assay: Cytotoxicity against human A549 cells by SRB assay. Type of assay: functional, cell-based.

Chain of GTPase KRas (Homo sapiens), P01116 [G12D] (P01116 whole entry G12D, looked up, the tested form may be a part): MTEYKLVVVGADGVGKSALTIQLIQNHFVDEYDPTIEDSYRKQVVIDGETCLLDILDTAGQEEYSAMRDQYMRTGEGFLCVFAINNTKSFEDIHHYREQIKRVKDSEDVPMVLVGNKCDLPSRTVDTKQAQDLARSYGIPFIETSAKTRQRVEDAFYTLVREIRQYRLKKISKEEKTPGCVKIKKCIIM
T1 sequence (P01116 whole entry, the tested form may be a part): as the sequence (P01116 whole entry G12D, looked up, the tested form may be a part) above, with D12G counted along it
T2 sequence (Q02750 whole entry): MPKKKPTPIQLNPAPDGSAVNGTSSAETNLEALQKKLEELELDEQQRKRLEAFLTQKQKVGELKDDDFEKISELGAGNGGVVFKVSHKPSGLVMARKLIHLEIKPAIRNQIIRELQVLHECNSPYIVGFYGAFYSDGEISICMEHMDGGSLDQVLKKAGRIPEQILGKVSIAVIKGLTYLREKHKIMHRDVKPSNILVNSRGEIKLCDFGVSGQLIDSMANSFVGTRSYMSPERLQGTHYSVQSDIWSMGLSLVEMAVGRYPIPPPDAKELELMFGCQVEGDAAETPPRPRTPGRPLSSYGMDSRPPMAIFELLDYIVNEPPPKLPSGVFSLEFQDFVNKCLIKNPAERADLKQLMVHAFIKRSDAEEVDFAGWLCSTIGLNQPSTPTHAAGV
Chain of RAF proto-oncogene serine/threonine-protein kinase (P04049 whole entry): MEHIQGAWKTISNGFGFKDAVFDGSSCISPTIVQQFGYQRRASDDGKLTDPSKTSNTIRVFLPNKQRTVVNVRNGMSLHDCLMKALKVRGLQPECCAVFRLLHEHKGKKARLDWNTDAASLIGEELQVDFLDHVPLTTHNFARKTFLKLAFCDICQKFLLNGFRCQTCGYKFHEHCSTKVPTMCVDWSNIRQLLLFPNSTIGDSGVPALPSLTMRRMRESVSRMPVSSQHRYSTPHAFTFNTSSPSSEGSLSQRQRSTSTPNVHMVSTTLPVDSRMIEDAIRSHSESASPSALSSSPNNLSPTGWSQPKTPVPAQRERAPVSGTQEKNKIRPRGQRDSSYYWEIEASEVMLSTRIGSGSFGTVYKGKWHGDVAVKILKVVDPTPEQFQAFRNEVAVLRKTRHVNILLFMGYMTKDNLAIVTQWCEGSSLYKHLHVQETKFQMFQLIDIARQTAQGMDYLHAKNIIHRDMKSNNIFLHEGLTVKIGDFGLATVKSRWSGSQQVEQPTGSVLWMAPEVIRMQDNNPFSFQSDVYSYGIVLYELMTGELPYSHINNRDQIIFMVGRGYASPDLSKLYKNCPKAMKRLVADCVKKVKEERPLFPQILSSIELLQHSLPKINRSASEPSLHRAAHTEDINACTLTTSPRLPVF

`Cc1[nH]c2ccccc2c1Cc1nc2ccccc2[nH]1` registered an Activity in assay [1] of 1.3 mM.
As for `Cc1[nH]c2cc(Cl)cc(Cl)c2c1CCN`, the pIC50 is 3.47 on GTPase KRas [2] and 3.81 on GTPase KRas [3].
Consider `c1ccc(-c2nn(-c3ccccc3)[n+](-c3ccccc3)n2)cc1`, for which the figures for the IC50 in the assay on DLD-1 [4] and in the assay on DLD-1 [6] were 2 µg/mL and 12 µg/mL, respectively. In addition, the “Ratio IC50” value in the assay on DLD-1 [5] was found to be 6.
For the compound `C[C@H](CO)COc1ccc([C@H]2NC(=O)N([C@H](C(=O)Nc3ccc(I)cc3F)[C@@H](C)c3ccccc3)C2=O)cc1`, the negative-log EC50 (pEC50) in the assay on Mus musculus [7] is 5.87; in the assay with Mus musculus [9], 5.47. The pIC50 in [8] is 7.60.
As for `NC(=O)c1nnn(Cc2cc(Cl)c(C(=O)c3ccc(Cl)cc3)c(Cl)c2)c1N` [CARBOXYAMIDOTRIAZOLE], the results for the pIC50 in [10] and in assay [11] were 6.40 and 5.22, respectively.
As to `CCCC(c1cc(C(C)(C)C)c(O)cc1C)c1cc(C(C)(C)C)c(O)cc1C`, the pIC50 in assay [10] was 6.40; in assay [11], 5.22.
For the compound `CCC(=O)c1csc(NC(=O)[C@H]([C@@H](C)c2ccccc2)N2C(=O)N[C@H](c3ccc(OCCO)cc3)C2=O)n1`, the pKi in assay [12] was below 4.30; in [13], 7.28; in assay [14], 6.74. For the same compound, in assay [15], the pIC50 was 7.64.
For `CC[C@@H]1C(=O)N(C)c2cnc(Nc3ccc(C(=O)NC4CCN(C)CC4)cc3OC)nc2N1C1CCCC1` [BI-2536], the inhibition at 0.025 µM with DLD-1 [16] is above 50%.
As for `CC[C@H](C)[C@H](N)C(=O)Nc1ccc2nc(Cc3c[nH]c4ccccc34)[nH]c2c1`, in assay [1], the Activity turned out to be 0.19 mM.
As for `C[C@H](CN1CCCC1)C(=O)c1ccc(C(F)(F)F)cc1` [LANPERISONE], the pIC50 in the assay with MEF [17] was 5.40. The results for the Activity with MEF [18] and with MEF [19] were 24% and 37%, respectively.
Turning to `O=C(O)c1ccc(NC(c2ccccc2)c2ccc3cccnc3c2O)cc1` (stereo unspecified), the pIC50 in assay [10] was 6.40; in assay [11], 5.22.
Take `O=Cc1cn(Cc2ccc(Cl)cc2)c2ccccc12`: the pIC50 is at least 5.52 in assay [20]; 5.32 in [23]; at least 5.52 in assay [24]; at least 5.52 with NCI-H2122; at least 5.52 in the assay on A549. Also, the Survival in assay [21] is 32 days. For the same compound, the inhibition in vivo at 100 mg/kg in assay [22] turned out to be 75.4%.

Source of the values: ChEMBL document CHEMBL2396593, “Targeting mutant KRAS for anticancer therapeutics: a review of novel small molecule modulators” (J Med Chem, 2013).
